Source: ChEMBL document CHEMBL1909046, “DrugMatrix in vitro pharmacology data”
pIC50, pKi: −log10 of the molar value.

Columns and labels:
[1] = biological target: Beta-3 adrenergic receptor (Homo sapiens, UniProt P13945); experiment: DRUGMATRIX: Adrenergic beta3 radioligand binding (ligand: [125I] Cyanopindolol); type: cell membranes, HEK293, Membrane; conditions: Not Active = under 50% inhibition at 10 µM; for IC50: hek293; for pIC50: read-out: IC50; for pKi: read-out: Ki
[2] = DRUGMATRIX: Calcium Channel Type L, Dihydropyridine radioligand binding (ligand: [3H] Nitrendipine); type: cell membranes, Rattus norvegicus, Wistar, Cerebral cortex, Membrane; conditions: Not Active = under 50% inhibition at 10 µM
[3] = biological target: 5-hydroxytryptamine receptor 4 (Cavia porcellus, UniProt O70528); type: cell membranes, Dunkin-Hartley, Striatum, Membrane; further: in other assays of this panel Not Active means under 50% inhibition at 10 µM
Substance-K receptor = biological target: T1, Substance-K receptor (Homo sapiens, UniProt P21452); type: cell membranes, CHO, Membrane; conditions: for IC50: cho; on all read-outs here: in other assays of this panel Not Active means under 50% inhibition at 10 µM
T1 sequence (P21452 whole entry): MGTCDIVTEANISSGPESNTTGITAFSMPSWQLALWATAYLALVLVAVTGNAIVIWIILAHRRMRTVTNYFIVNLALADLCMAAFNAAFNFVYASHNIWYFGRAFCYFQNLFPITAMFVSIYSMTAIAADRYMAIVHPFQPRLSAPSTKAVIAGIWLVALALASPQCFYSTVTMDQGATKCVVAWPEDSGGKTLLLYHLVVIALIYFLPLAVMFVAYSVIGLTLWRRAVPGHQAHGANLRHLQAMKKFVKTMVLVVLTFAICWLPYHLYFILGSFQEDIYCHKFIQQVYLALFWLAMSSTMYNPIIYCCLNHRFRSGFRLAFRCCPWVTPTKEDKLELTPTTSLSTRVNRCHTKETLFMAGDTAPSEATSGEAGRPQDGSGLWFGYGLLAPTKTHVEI

[4] = biological target: C-C chemokine receptor type 5 (Homo sapiens, UniProt P51681); type: cell membranes, Membrane; conditions: hek293; further: in other assays of this panel Not Active means under 50% inhibition at 10 µM
[5] = DRUGMATRIX: Leukotriene, BLT (LTB4) radioligand binding (ligand: [3H]LTB4); type: cell membranes, Membrane; conditions: u-937; Not Active = under 50% inhibition at 10 µM
[6] = biological target: T2, Polyunsaturated fatty acid lipoxygenase ALOX15 (Oryctolagus cuniculus, UniProt P12530); experiment: biochemical; type: tissue-based, Reticulocytes; conditions: reticulocytes;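 further: inhibition of 15-lipoxygenase enzyme activity measured with linoleic acid as the substrate; in other assays of this panel Not Active means under 50% inhibition at 10 µM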
T2 sequence (P12530 whole entry): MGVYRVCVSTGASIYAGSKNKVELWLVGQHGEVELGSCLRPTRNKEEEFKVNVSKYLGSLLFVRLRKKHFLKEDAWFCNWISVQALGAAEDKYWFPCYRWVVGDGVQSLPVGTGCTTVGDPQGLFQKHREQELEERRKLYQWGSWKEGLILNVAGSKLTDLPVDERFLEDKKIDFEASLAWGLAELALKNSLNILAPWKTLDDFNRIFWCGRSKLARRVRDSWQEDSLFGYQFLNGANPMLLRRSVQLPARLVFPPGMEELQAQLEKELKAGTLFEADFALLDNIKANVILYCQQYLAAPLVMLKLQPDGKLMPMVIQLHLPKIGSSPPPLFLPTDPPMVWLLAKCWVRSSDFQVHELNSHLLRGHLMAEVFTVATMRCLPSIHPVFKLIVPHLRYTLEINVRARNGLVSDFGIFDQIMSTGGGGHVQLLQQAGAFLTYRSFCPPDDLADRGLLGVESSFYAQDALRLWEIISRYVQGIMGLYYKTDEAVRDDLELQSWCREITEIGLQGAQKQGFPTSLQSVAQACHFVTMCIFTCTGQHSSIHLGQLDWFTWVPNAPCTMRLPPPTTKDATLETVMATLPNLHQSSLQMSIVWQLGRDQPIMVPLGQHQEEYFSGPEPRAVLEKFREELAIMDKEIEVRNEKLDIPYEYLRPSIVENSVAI

[7] = biological target: Matrix metalloproteinase-9 (Homo sapiens, UniProt P14780); experiment: biochemical; type: cell-based
Sequence of Matrix metalloproteinase-9 (P14780 whole entry): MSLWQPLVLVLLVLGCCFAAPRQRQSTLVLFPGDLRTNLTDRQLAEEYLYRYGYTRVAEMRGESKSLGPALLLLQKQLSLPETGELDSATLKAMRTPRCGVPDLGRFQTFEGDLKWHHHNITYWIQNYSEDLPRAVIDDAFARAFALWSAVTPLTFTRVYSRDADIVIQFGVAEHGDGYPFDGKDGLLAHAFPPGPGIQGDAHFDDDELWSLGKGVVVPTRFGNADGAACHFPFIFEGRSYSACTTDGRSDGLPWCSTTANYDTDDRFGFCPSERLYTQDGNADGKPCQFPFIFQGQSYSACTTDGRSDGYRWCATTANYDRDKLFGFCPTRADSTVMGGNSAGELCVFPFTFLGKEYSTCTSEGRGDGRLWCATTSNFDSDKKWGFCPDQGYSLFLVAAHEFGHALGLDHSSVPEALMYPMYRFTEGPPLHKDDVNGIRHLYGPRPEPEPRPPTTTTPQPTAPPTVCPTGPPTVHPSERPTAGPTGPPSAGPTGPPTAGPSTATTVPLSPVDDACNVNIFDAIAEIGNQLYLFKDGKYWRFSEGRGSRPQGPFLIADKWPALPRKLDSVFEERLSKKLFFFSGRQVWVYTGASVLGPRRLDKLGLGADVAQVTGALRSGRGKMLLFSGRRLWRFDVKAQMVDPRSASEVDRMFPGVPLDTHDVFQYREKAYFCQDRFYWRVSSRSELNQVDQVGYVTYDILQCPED

Sequence of C-C chemokine receptor type 5 (P51681 whole entry): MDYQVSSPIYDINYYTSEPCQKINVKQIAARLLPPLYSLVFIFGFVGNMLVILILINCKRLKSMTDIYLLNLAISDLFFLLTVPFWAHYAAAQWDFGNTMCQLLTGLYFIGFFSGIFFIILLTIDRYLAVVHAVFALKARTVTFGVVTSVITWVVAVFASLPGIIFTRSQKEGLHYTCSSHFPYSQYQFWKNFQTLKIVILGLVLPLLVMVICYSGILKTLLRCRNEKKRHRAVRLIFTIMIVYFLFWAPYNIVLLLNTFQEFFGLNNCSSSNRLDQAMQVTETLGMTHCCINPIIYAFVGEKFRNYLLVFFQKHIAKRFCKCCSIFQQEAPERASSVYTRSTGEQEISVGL
Sequence of 5-hydroxytryptamine receptor 4 (O70528 whole entry): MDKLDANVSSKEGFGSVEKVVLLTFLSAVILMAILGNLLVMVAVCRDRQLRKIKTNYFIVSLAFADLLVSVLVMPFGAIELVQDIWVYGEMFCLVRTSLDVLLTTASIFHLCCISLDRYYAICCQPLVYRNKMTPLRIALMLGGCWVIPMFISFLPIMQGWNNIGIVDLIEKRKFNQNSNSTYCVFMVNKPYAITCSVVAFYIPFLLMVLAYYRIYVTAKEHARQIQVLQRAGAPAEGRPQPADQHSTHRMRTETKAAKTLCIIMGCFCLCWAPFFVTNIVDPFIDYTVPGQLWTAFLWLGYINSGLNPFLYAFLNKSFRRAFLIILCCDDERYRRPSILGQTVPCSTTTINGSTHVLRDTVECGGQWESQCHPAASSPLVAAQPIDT
Sequence of Beta-3 adrenergic receptor (P13945 whole entry): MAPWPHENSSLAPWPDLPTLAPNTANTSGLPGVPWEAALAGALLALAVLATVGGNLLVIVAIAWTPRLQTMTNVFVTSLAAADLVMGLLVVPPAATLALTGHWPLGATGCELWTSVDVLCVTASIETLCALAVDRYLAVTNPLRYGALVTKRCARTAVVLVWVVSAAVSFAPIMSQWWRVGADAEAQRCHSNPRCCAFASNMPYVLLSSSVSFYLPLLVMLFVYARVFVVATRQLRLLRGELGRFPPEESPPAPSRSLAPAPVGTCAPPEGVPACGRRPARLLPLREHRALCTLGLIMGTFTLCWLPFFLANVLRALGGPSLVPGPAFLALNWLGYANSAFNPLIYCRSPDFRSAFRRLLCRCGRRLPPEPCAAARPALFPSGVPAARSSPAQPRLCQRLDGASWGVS

Row | Structure (SMILES) | IC50 [1] | IC50 [2] | Ki [2] | IC50 [3] | IC50 (Substance-K receptor) | IC50 [4] | IC50 [5] | Ki [5] | IC50 [6] | IC50 [7] | pIC50 [1] | pKi [1] | pIC50 (Substance-K receptor; read-out: IC50) | pKi (Substance-K receptor; read-out: Ki)
1 | COc1cc(N)nc2[nH]c(-c3ccc(F)cc3)c(-c3ccncc3)c12 | Not Active | Not Active | Not Active | Not Active | Not Active | Not Active | Not Active | Not Active | Not Active | Not Active | – | – | – | –
2 | CNS(=O)(=O)Cc1ccc2[nH]cc(CCN(C)C)c2c1 | Not Active | Not Active | Not Active | Not Active | Not Active | Not Active | Not Active | Not Active | Not Active | Not Active | – | – | – | –
3 | CCCc1nn(C)c2c(=O)[nH]c(-c3cc(S(=O)(=O)N4CCN(C)CC4)ccc3OCC)nc12 | Not Active | Not Active | Not Active | Not Active | Not Active | Not Active | Not Active | Not Active | Not Active | Not Active | – | – | – | –
4 | COc1ccc(/C=C/C(=O)Nc2ccccc2C(=O)O)cc1OC | Not Active | Not Active | Not Active | Not Active | Not Active | Not Active | Not Active | Not Active | Not Active | Not Active | – | – | – | –
5 | CCOC(N)=O | Not Active | Not Active | Not Active | Not Active | Not Active | Not Active | Not Active | Not Active | Not Active | Not Active | – | – | – | –
6 | CC(=O)Nc1nnc(S(N)(=O)=O)s1 [ACETAZOLAMIDE] | Not Active | – | – | Not Active | Not Active | Not Active | – | – | Not Active | Not Active | – | – | – | –
7 | O=c1[nH]c2ccccc2n1CCCN1CCC(n2c(=O)[nH]c3cc(Cl)ccc32)CC1 [DOMPERIDONE] | Not Active | – | – | Not Active | Not Active | Not Active | – | – | Not Active | Not Active | – | – | – | –
8 | CC1=C(CC(=O)O)c2cc(F)ccc2/C1=C\c1ccc(S(C)(=O)=O)cc1 [EXISULIND] | Not Active | Not Active | Not Active | Not Active | Not Active | Not Active | Not Active | Not Active | Not Active | Not Active | – | – | – | –
9 | CC(C)OC(=O)C(C)(C)Oc1ccc(C(=O)c2ccc(Cl)cc2)cc1 [FENOFIBRATE] | – | – | – | Not Active | Not Active | Not Active | – | – | Not Active | Not Active | 3.91 | 4.03 | – | –
10 | OCCN1CCN(CCCN2c3ccccc3Sc3ccc(C(F)(F)F)cc32)CC1 [FLUPHENAZINE] | – | – | – | Not Active | – | Not Active | – | – | Not Active | Not Active | 4.53 | 4.66 | 4.65 | 5.13
11 | CN1C2CCCC1CC(NC(=O)c1nn(C)c3ccccc13)C2 (stereo unspecified) [GRANISETRON] | Not Active | – | – | Not Active | Not Active | Not Active | – | – | Not Active | Not Active | – | – | – | –
12 | Nc1nc2c(c(=O)[nH]1)N(C=O)C(CNc1ccc(C(=O)N[C@@H](CCC(=O)O)C(=O)O)cc1)CN2 (stereo partly specified) [LEUCOVORIN] | Not Active | Not Active | Not Active | Not Active | Not Active | Not Active | Not Active | Not Active | Not Active | Not Active | – | – | – | –
13 | C[C@@H](O)[C@H]1C(=O)N2C(C(=O)O)=C(S[C@@H]3CN[C@H](C(=O)N(C)C)C3)[C@H](C)[C@H]12 [MEROPENEM] | Not Active | Not Active | Not Active | Not Active | Not Active | Not Active | Not Active | Not Active | Not Active | Not Active | – | – | – | –
14 | CC[C@@H](CO)NC(=O)[C@@H]1C=C2c3cccc4c3c(cn4C)C[C@H]2N(C)C1 [METHYSERGIDE] | Not Active | – | – | Not Active | Not Active | Not Active | – | – | Not Active | Not Active | – | – | – | –
15 | CCN(CC)CC#CCOC(=O)C(O)(c1ccccc1)C1CCCCC1 (stereo unspecified) [OXYBUTYNIN] | Not Active | – | – | Not Active | Not Active | Not Active | – | – | Not Active | Not Active | – | – | – | –
16 | O=P(O)(O)C(O)(Cc1cccnc1)P(=O)(O)O [RISEDRONIC ACID] | Not Active | Not Active | Not Active | Not Active | Not Active | Not Active | Not Active | Not Active | Not Active | Not Active | – | – | – | –
17 | CN(CCOc1ccc(CC2SC(=O)NC2=O)cc1)c1ccccn1 (stereo unspecified) [ROSIGLITAZONE] | Not Active | Not Active | Not Active | Not Active | Not Active | Not Active | Not Active | Not Active | Not Active | Not Active | – | – | – | –
18 | C=C(C)[C@H]1Cc2c(ccc3c2O[C@@H]2COc4cc(OC)c(OC)cc4[C@@H]2C3=O)O1 [ROTENONE] | Not Active | Not Active | Not Active | Not Active | Not Active | Not Active | Not Active | Not Active | Not Active | Not Active | – | – | – | –
19 | C#CCN(C)[C@H](C)Cc1ccccc1 [SELEGILINE] | Not Active | Not Active | Not Active | Not Active | Not Active | Not Active | Not Active | Not Active | Not Active | Not Active | – | – | – | –
20 | CO[C@H]1C[C@@H]2CC[C@@H](C)[C@@](O)(O2)C(=O)C(=O)N2CCCC[C@H]2C(=O)O[C@H]([C@H](C)C[C@@H]2CC[C@@H](O)[C@H](OC)C2)CC(=O)[C@H](C)/C=C(\C)[C@@H](O)[C@@H](OC)C(=O)[C@H](C)C[C@H](C)/C=C/C=C/C=C/1C [SIROLIMUS] | Not Active | Not Active | Not Active | Not Active | Not Active | Not Active | Not Active | Not Active | Not Active | Not Active | – | – | – | –
21 | CN[C@@H]1[C@H](O)[C@H](NC)[C@H]2O[C@@]3(O)C(=O)C[C@@H](C)O[C@H]3O[C@@H]2[C@H]1O [SPECTINOMYCIN] | Not Active | Not Active | Not Active | Not Active | Not Active | Not Active | Not Active | Not Active | Not Active | Not Active | – | – | – | –
22 | Nc1ccc(S(=O)(=O)Nc2ncccn2)cc1 [SULFADIAZINE] | Not Active | Not Active | Not Active | Not Active | Not Active | Not Active | Not Active | Not Active | Not Active | Not Active | – | – | – | –
23 | COc1ncnc(NS(=O)(=O)c2ccc(N)cc2)c1OC [SULFADOXINE] | Not Active | Not Active | Not Active | Not Active | Not Active | Not Active | Not Active | Not Active | Not Active | Not Active | – | – | – | –
24 | Nc1ccc(S(=O)(=O)Nc2nccs2)cc1 [SULFATHIAZOLE] | Not Active | Not Active | Not Active | Not Active | Not Active | Not Active | Not Active | Not Active | Not Active | Not Active | – | – | – | –
25 | O=c1n(CCCN2CCN(c3cccc(Cl)c3)CC2)nc2ccccn12 [TRAZODONE] | Not Active | – | – | Not Active | Not Active | Not Active | – | – | Not Active | Not Active | – | – | – | –
